Measurements published in PubChem BioAssay (NCI).
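Test compounds were applied to cells in 96-well plates for 48 hours at 5 doses. Definition used: TGI = concentration required for complete inhibition of growth.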

Tests used:
Test in all cases: NCI tumour cell line growth inhibition, 48 h
TK-10 renal = test system: TK-10 renal
HT29 colon = test system: HT29 colon
LOX IMVI melanoma = test system: LOX IMVI melanoma
OVCAR-3 ovarian = test system: OVCAR-3 ovarian
DLD-1 colon = test system: DLD-1 colon
ACHN renal = test system: ACHN renal
SW-620 colon = test system: SW-620 colon
DMS 273 small cell lung = test system: DMS 273 small cell lung
HCT-15 colon = test system: HCT-15 colon
OVCAR-8 ovarian = test system: OVCAR-8 ovarian
K-562 leukemia = test system: K-562 leukemia
EKVX NSCLC = test system: EKVX NSCLC
HOP-62 NSCLC = test system: HOP-62 NSCLC
HCC-2998 colon = test system: HCC-2998 colon
OVCAR-4 ovarian = test system: OVCAR-4 ovarian
SNB-19 CNS = test system: SNB-19 CNS
NCI-H23 lung = test system: NCI-H23 lung
M19-MEL melanoma = test system: M19-MEL melanoma
M14 melanoma = test system: M14 melanoma
SN12C renal = test system: SN12C renal
NCI-H460 lung = test system: NCI-H460 lung
786-0 renal = test system: 786-0 renal
SNB-75 CNS = test system: SNB-75 CNS
COLO 205 colon = test system: COLO 205 colon
HL-60(TB) leukemia = test system: HL-60(TB) leukemia
CAKI-1 renal = test system: CAKI-1 renal
A549 NSCLC = test system: A549 NSCLC
KM20L2 colon = test system: KM20L2 colon
SK-MEL-2 melanoma = test system: SK-MEL-2 melanoma
HCT-116 colon = test system: HCT-116 colon
UACC-62 melanoma = test system: UACC-62 melanoma
NCI-H226 lung = test system: NCI-H226 lung
MOLT-4 leukemia = test system: MOLT-4 leukemia
UACC-257 melanoma = test system: UACC-257 melanoma
KM12 colon = test system: KM12 colon
A498 renal = test system: A498 renal
DMS 114 small cell lung = test system: DMS 114 small cell lung
MALME-3M melanoma = test system: MALME-3M melanoma
SF-295 CNS = test system: SF-295 CNS
XF 498 CNS = test system: XF 498 CNS
NCI-H522 lung = test system: NCI-H522 lung
SK-MEL-5 melanoma = test system: SK-MEL-5 melanoma
IGROV1 ovarian = test system: IGROV1 ovarian
SR leukemia = test system: SR leukemia
SF-539 CNS = test system: SF-539 CNS
CCRF-CEM leukemia = test system: CCRF-CEM leukemia
RPMI-8226 leukemia = test system: RPMI-8226 leukemia
UO-31 renal = test system: UO-31 renal
SK-MEL-28 melanoma = test system: SK-MEL-28 melanoma
LXFL 529 NSCLC = test system: LXFL 529 NSCLC
RXF 393 renal = test system: RXF 393 renal
SF-268 CNS = test system: SF-268 CNS
RXF-631 renal = test system: RXF-631 renal
HOP-92 NSCLC = test system: HOP-92 NSCLC
OVCAR-5 ovarian = test system: OVCAR-5 ovarian
SNB-78 CNS = test system: SNB-78 CNS
U251 CNS = test system: U251 CNS

Cn1cc(C(=O)C[n+]2ccccc2)c2ccccc21
TGI (TK-10 renal): > 100 µM | TGI (HT29 colon): > 100 µM | TGI (LOX IMVI melanoma): > 100 µM | TGI (OVCAR-3 ovarian): > 100 µM | TGI (DLD-1 colon): > 100 µM | TGI (ACHN renal): > 100 µM | TGI (SW-620 colon): > 100 µM | TGI (DMS 273 small cell lung): > 100 µM | TGI (HCT-15 colon): > 100 µM | TGI (OVCAR-8 ovarian): > 100 µM | TGI (K-562 leukemia): > 100 µM | TGI (EKVX NSCLC): 88.3 µM | TGI (HOP-62 NSCLC): > 100 µM | TGI (HCC-2998 colon): > 100 µM | TGI (OVCAR-4 ovarian): > 100 µM | TGI (SNB-19 CNS): > 100 µM | TGI (NCI-H23 lung): > 100 µM | TGI (M19-MEL melanoma): > 100 µM | TGI (M14 melanoma): > 100 µM | TGI (SN12C renal): > 100 µM | TGI (NCI-H460 lung): > 100 µM | TGI (786-0 renal): > 100 µM | TGI (SNB-75 CNS): > 100 µM | TGI (COLO 205 colon): > 100 µM | TGI (HL-60(TB) leukemia): > 100 µM | TGI (CAKI-1 renal): > 100 µM | TGI (A549 NSCLC): > 100 µM | TGI (KM20L2 colon): > 100 µM | TGI (SK-MEL-2 melanoma): > 100 µM | TGI (HCT-116 colon): > 100 µM | TGI (UACC-62 melanoma): > 100 µM | TGI (NCI-H226 lung): 59.1 µM | TGI (MOLT-4 leukemia): > 100 µM | TGI (UACC-257 melanoma): > 100 µM | TGI (KM12 colon): > 100 µM | TGI (A498 renal): 92.4 µM | TGI (DMS 114 small cell lung): > 100 µM | TGI (MALME-3M melanoma): > 100 µM | TGI (SF-295 CNS): > 100 µM | TGI (XF 498 CNS): > 100 µM | TGI (NCI-H522 lung): > 100 µM | TGI (SK-MEL-5 melanoma): > 100 µM | TGI (IGROV1 ovarian): > 100 µM | TGI (SR leukemia): > 100 µM | TGI (SF-539 CNS): > 100 µM | TGI (CCRF-CEM leukemia): > 100 µM | TGI (RPMI-8226 leukemia): > 100 µM | TGI (UO-31 renal): > 100 µM

O=c1c2cc(Cl)ccc2sc2cccc(Cl)c12
TGI (TK-10 renal): > 100 µM | TGI (SK-MEL-28 melanoma): > 100 µM | TGI (LXFL 529 NSCLC): > 100 µM | TGI (HT29 colon): > 100 µM | TGI (LOX IMVI melanoma): > 100 µM | TGI (OVCAR-3 ovarian): > 100 µM | TGI (ACHN renal): > 100 µM | TGI (RXF 393 renal): > 100 µM | TGI (SW-620 colon): > 100 µM | TGI (DMS 273 small cell lung): > 100 µM | TGI (SF-268 CNS): > 100 µM | TGI (RXF-631 renal): > 100 µM | TGI (HCT-15 colon): > 100 µM | TGI (OVCAR-8 ovarian): > 100 µM | TGI (K-562 leukemia): > 100 µM | TGI (EKVX NSCLC): > 100 µM | TGI (HOP-62 NSCLC): > 100 µM | TGI (OVCAR-4 ovarian): > 100 µM | TGI (SNB-19 CNS): > 100 µM | TGI (NCI-H23 lung): > 100 µM | TGI (M19-MEL melanoma): > 100 µM | TGI (M14 melanoma): > 100 µM | TGI (HOP-92 NSCLC): > 100 µM | TGI (SN12C renal): > 100 µM | TGI (NCI-H460 lung): > 100 µM | TGI (786-0 renal): > 100 µM | TGI (COLO 205 colon): > 100 µM | TGI (HL-60(TB) leukemia): > 100 µM | TGI (CAKI-1 renal): > 100 µM | TGI (A549 NSCLC): > 100 µM | TGI (KM20L2 colon): > 100 µM | TGI (SK-MEL-2 melanoma): > 100 µM | TGI (HCT-116 colon): > 100 µM | TGI (UACC-62 melanoma): > 100 µM | TGI (NCI-H226 lung): > 100 µM | TGI (MOLT-4 leukemia): > 100 µM | TGI (UACC-257 melanoma): > 100 µM | TGI (KM12 colon): > 100 µM | TGI (A498 renal): > 100 µM | TGI (SF-295 CNS): > 100 µM | TGI (NCI-H522 lung): > 100 µM | TGI (IGROV1 ovarian): > 100 µM | TGI (SR leukemia): > 100 µM | TGI (OVCAR-5 ovarian): > 100 µM | TGI (SNB-78 CNS): > 100 µM | TGI (U251 CNS): > 100 µM | TGI (SF-539 CNS): > 100 µM | TGI (CCRF-CEM leukemia): > 100 µM | TGI (RPMI-8226 leukemia): > 100 µM | TGI (UO-31 renal): > 100 µM
